According to ChEMBL document CHEMBL1759968, “Synthesis and biological evaluation of unsaturated keto and exomethylene D-arabinopyranonucleoside analogs: novel 5-fluorouracil analogs that target thymidylate synthase” (Eur J Med Chem, 2011):
Activity calls are given as the source filed them. No cut-off for these calls is given here.

Key:
[1] = test system: Mammalian orthoreovirus 1; assay: Antiviral activity against Reovirus 1 infected in Vero cells assessed as inhibition of virus-induced cytopathic effect; assay type: functional, organism-based
Human respirovirus 3 = assay: Antiviral activity against Human parainfluenza virus 3 infected in Vero cells assessed as inhibition of virus-induced cytopathic effect; assay type: functional, organism-based
[2] = test system: Vesicular stomatitis virus; assay: Antiviral activity against Vesicular stomatitis virus infected in HEL cells assessed as inhibition of virus-induced cytopathic effect; assay type: functional, organism-based
Vaccinia virus = assay: Antiviral activity against Vaccinia virus infected in HEL cells assessed as inhibition of virus-induced cytopathic effect; assay type: functional, organism-based; details: Orthopoxvirus vaccinia
Human alphaherpesvirus 2 = assay: Antiviral activity against Herpes simplex virus type-2 infected in HEL cells assessed as inhibition of virus-induced cytopathic effect; assay type: functional, organism-based
Human alphaherpesvirus 1 = assay: Antiviral activity against Herpes simplex virus type-1 infected in HEL cells assessed as inhibition of virus-induced cytopathic effect; assay type: functional, organism-based
L1210 [3] = assay: Cytostatic activity against mouse L1210 cells after 2 days by coulter counting analysis; assay type: functional, cell-based; details: L1210, 48 h
FM3A = assay: Cytostatic activity against mouse FM3A cells after 2 days by coulter counting analysis; assay type: functional, cell-based; details: 48 h
L1210 [4] = assay: Cytostatic activity against mouse L1210 cells in presence of 20 uM thymidine; assay type: functional, cell-based
L1210 [5] = assay: Cytostatic activity against mouse L1210 cells in presence of 20 uM 2'-deoxyuridine; assay type: functional, cell-based
L1210 [6] = assay: Cytostatic activity against mouse L1210 cells in presence of 500 uM uridine; assay type: functional, cell-based
L1210 [7] = assay: Cytostatic activity against mouse L1210 cells in presence of 500 uM uracil; assay type: functional, cell-based
HeLa [8] = assay: Cytostatic activity against human HeLa cells in presence of 20 uM thymidine; assay type: functional, cell-based
HeLa [9] = assay: Cytostatic activity against human HeLa cells in presence of 20 uM 2'-deoxyuridine; assay type: functional, cell-based
HeLa [10] = assay: Cytostatic activity against human HeLa cells in presence of 500 uM uridine; assay type: functional, cell-based
HeLa [11] = assay: Cytostatic activity against human HeLa cells in presence of 500 uM uracil; assay type: functional, cell-based
Thymidylate synthase [12] = target: T1, Thymidylate synthase (Mus musculus, UniProt P07607); assay: Inhibition of thymidylate synthase in mouse L1210 cells assessed as inhibition of tritium release from [5-3H]deoxyuridine after preincubation for 15 mins by liquid scintillation counting; assay type: cell-based
Thymidylate synthase [13] = target: T1, Thymidylate synthase; assay: Inhibition of thymidylate synthase in mouse L1210 cells assessed as inhibition of tritium release from [5-3H]deoxyuridine after preincubation for 4 hrs by liquid scintillation counting; assay type: cell-based
Thymidylate synthase [14] = target: T1, Thymidylate synthase; assay: Inhibition of thymidylate synthase in mouse L1210 cells assessed as inhibition of tritium release from [5-3H]deoxyuridine after preincubation for 24 hrs by liquid scintillation counting; assay type: cell-based
Thymidylate synthase [15] = target: T1, Thymidylate synthase; assay: Inhibition of thymidylate synthase in mouse L1210 cells assessed as inhibition of tritium release from [5-3H]deoxycytidine after preincubation for 15 mins by liquid scintillation counting; assay type: cell-based
Thymidylate synthase [16] = target: T1, Thymidylate synthase; assay: Inhibition of thymidylate synthase in mouse L1210 cells assessed as inhibition of tritium release from [5-3H]deoxycytidine after preincubation for 24 hrs by liquid scintillation counting; assay type: cell-based
Punta Toro virus = assay: Antiviral activity against Punta Toro virus infected in Vero cells assessed as inhibition of virus-induced cytopathic effect; assay type: functional, organism-based
[17] = test system: Vesicular stomatitis virus; assay: Antiviral activity against Vesicular stomatitis virus infected in HeLa cells assessed as inhibition of virus-induced cytopathic effect; assay type: functional, organism-based
[18] = test system: Respiratory syncytial virus; assay: Antiviral activity against Respiratory syncytial virus infected in HeLa cells assessed as inhibition of virus-induced cytopathic effect; assay type: functional, organism-based
Sindbis virus = assay: Antiviral activity against Sindbis virus infected in Vero cells assessed as inhibition of virus-induced cytopathic effect; assay type: functional, organism-based
Coxsackievirus B4 [19] = assay: Antiviral activity against Human coxsackievirus B4 infected in Vero cells assessed as inhibition of virus-induced cytopathic effect; assay type: functional, organism-based
Coxsackievirus B4 [20] = assay: Antiviral activity against Human coxsackievirus B4 infected in HeLa cells assessed as inhibition of virus-induced cytopathic effect; assay type: functional, organism-based
CCRF-CEM = assay: Cytostatic activity against human CEM cells after 3 days by coulter counting analysis; assay type: functional, cell-based; details: 72 h
HeLa [21] = assay: Cytostatic activity against human HeLa cells after 3 days by coulter counting analysis; assay type: functional, cell-based; details: 72 h
L1210 [22] = assay: Inhibition of DNA synthesis in mouse L1210 cells assessed as [methyl-3H]thymidine incorporation in to DNA by liquid scintillation counting; assay type: functional, cell-based
L1210 [23] = assay: Inhibition of DNA synthesis in mouse L1210 cells assessed as [6-3H]2'-deoxyuridine incorporation in to DNA by liquid scintillation counting; assay type: functional, cell-based
L1210 [24] = assay: Inhibition of RNA synthesis in mouse L1210 cells assessed as [5-3H]uridine incorporation in to RNA by liquid scintillation counting; assay type: functional, cell-based
L1210 [25] = assay: Inhibition of DNA synthesis in mouse L1210 cells assessed as [methyl-3H]thymidine incorporation in to DNA preincubated for 24 hrs by liquid scintillation counting; assay type: functional, cell-based
L1210 [26] = assay: Inhibition of DNA synthesis in mouse L1210 cells assessed as [6-3H]2'-deoxyuridine incorporation in to DNA preincubated for 24 hrs by liquid scintillation counting; assay type: functional, cell-based
L1210 [27] = assay: Inhibition of RNA synthesis in mouse L1210 cells assessed as [5-3H]uridine incorporation in to RNA preincubated for 24 hrs by liquid scintillation counting; assay type: functional, cell-based

T1 sequence (P07607 whole entry): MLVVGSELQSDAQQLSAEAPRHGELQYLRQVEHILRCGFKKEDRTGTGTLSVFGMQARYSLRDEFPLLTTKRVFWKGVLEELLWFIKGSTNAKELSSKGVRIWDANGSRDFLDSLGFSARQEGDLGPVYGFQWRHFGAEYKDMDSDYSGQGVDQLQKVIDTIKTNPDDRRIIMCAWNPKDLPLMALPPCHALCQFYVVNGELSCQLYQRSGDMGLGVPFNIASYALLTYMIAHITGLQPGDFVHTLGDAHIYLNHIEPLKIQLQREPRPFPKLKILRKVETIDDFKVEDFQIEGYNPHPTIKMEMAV

O=c1[nH]c(=O)n([C@H]2C[C@H](O)[C@@H](CO)O2)cc1F [FLOXURIDINE]
Activity [1]: inactive | Activity (Human respirovirus 3): inactive | Activity [2]: inactive | Activity (Vaccinia virus): inactive | Activity (Human alphaherpesvirus 2): inactive | Activity (Human alphaherpesvirus 1): inactive | IC50 (L1210 [3]): 0.0011 µM | IC50 (FM3A): 0.0094 µM | IC50 (L1210 [4]): 100 µM | IC50 (L1210 [5]): 0.0051 µM | IC50 (L1210 [6]): 0.0023 µM | IC50 (L1210 [7]): 0.00063 µM | IC50 (HeLa [8]): 8.5 µM | IC50 (HeLa [9]): 0.021 µM | IC50 (HeLa [10]): 0.061 µM | IC50 (HeLa [11]): 0.11 µM | IC50 (Thymidylate synthase [12]): 0.0006 µM | IC50 (Thymidylate synthase [13]): 0.0004 µM | IC50 (Thymidylate synthase [14]): 0.0004 µM | IC50 (Thymidylate synthase [15]): 0.0006 µM | IC50 (Thymidylate synthase [16]): 0.0007 µM | Activity (Punta Toro virus): inactive | Activity [17]: inactive | Activity [18]: inactive | Activity (Sindbis virus): inactive | Activity (Coxsackievirus B4 [19]): inactive | Activity (Coxsackievirus B4 [20]): inactive

C=C1[C@H](O)[C@H](O)CO[C@@H]1n1cc(F)c(O)nc1=O
Activity [1]: inactive | Activity (Human respirovirus 3): inactive | Activity [2]: inactive | Activity (Vaccinia virus): inactive | Activity (Human alphaherpesvirus 2): inactive | Activity (Human alphaherpesvirus 1): inactive | IC50 (L1210 [3]): 21 µM | IC50 (FM3A): 1.9 µM | IC50 (CCRF-CEM): 97 µM | IC50 (HeLa [21]): 18 µM | IC50 (L1210 [4]): > 500 µM | IC50 (L1210 [5]): 66 µM | IC50 (L1210 [6]): 18 µM | IC50 (L1210 [7]): 18 µM | IC50 (HeLa [8]): 146 µM | IC50 (HeLa [9]): 12 µM | IC50 (HeLa [10]): 79 µM | IC50 (HeLa [11]): 58 µM | IC50 (L1210 [22]): > 500 µM | IC50 (L1210 [23]): 85 µM | IC50 (L1210 [24]): > 100 µM | IC50 (L1210 [25]): > 500 µM | IC50 (L1210 [26]): 18 µM | IC50 (L1210 [27]): 282 µM | Activity (Punta Toro virus): inactive | Activity [17]: inactive | Activity [18]: inactive | Activity (Sindbis virus): inactive | Activity (Coxsackievirus B4 [19]): inactive | Activity (Coxsackievirus B4 [20]): inactive

C=C1C=CCO[C@@H]1n1cc(F)c(O)nc1=O
Activity [1]: inactive | Activity (Human respirovirus 3): inactive | Activity [2]: inactive | Activity (Vaccinia virus): inactive | Activity (Human alphaherpesvirus 2): inactive | Activity (Human alphaherpesvirus 1): inactive | IC50 (L1210 [3]): 8 µM | IC50 (FM3A): 2.4 µM | IC50 (CCRF-CEM): 85 µM | IC50 (HeLa [21]): 3.5 µM | IC50 (L1210 [4]): 182 µM | IC50 (L1210 [5]): 18 µM | IC50 (L1210 [6]): 5.7 µM | IC50 (L1210 [7]): 5.8 µM | IC50 (HeLa [8]): 34 µM | IC50 (HeLa [9]): 1.4 µM | IC50 (HeLa [10]): 8 µM | IC50 (HeLa [11]): 18 µM | IC50 (L1210 [22]): > 500 µM | IC50 (L1210 [23]): 37 µM | IC50 (L1210 [24]): > 100 µM | IC50 (L1210 [25]): > 500 µM | IC50 (L1210 [26]): 7.9 µM | IC50 (L1210 [27]): 84 µM | Activity (Punta Toro virus): inactive | Activity [17]: inactive | Activity [18]: inactive | Activity (Sindbis virus): inactive | Activity (Coxsackievirus B4 [19]): inactive | Activity (Coxsackievirus B4 [20]): inactive
